Laboratory results taken from US20090326031A1, “ANTIVIRAL USE OF CATIONIC SURFACTANT” (priority 2006, published 2009).

Columns and labels:
[1] = test system: Salmonella typhimurium ATCC16028; assay: minimum inhibitory concentration; type: cell-based; conditions: Gram − Bacteria
From the text: (§1) This compound is remarkable for its inhibitory action over the proliferation of different microorganisms, such as bacteria, fungi and yeasts.

[2] = test system: Alcaligenes faecalis ATCC 8750; assay: minimum inhibitory concentration; type: cell-based; conditions: Gram − Bacteria
From the text: as §1

[3] = test system: Lactobacillus delbrueckii ssp lactis CECT 372; assay: minimum inhibitory concentration; type: cell-based; conditions: Gram + Bacteria
From the text: as §1

[4] = test system: Bacillus cereus var mycoide ATCC 11778; assay: minimum inhibitory concentration; type: cell-based; conditions: Gram + Bacteria
From the text: as §1

[5] = test system: Pseudomonas aeruginosa ATCC 9027; assay: minimum inhibitory concentration; type: cell-based; conditions: Gram − Bacteria
From the text: as §1

[6] = test system: Micrococcus luteus ATCC 9631; assay: minimum inhibitory concentration; type: cell-based; conditions: Gram + Bacteria
From the text: as §1

[7] = test system: Serratia marcenses CECT 274; assay: minimum inhibitory concentration; type: cell-based; conditions: Gram − Bacteria
From the text: as §1

[8] = test system: Leuconostoc mesenteroides CETC 912; assay: minimum inhibitory concentration; type: cell-based; conditions: Gram + Bacteria
From the text: as §1

[9] = test system: Gliocadium virens ATCC 4645; assay: minimum inhibitory concentration; type: cell-based; conditions: Fungi
From the text: as §1

[10] = test system: Aureobasidium pullulans ATCC 9348; assay: minimum inhibitory concentration; type: cell-based; conditions: Fungi
From the text: as §1

[11] = test system: Bacillus subtilis ATCC 6633; assay: minimum inhibitory concentration; type: cell-based; conditions: Gram + Bacteria
From the text: as §1

[12] = test system: Klebsiella pneumoniae var pneumoniae CECT 178; assay: minimum inhibitory concentration; type: cell-based; conditions: Gram − Bacteria
From the text: as §1

[13] = test system: Penicillium chrysogenum CECT 2802; assay: minimum inhibitory concentration; type: cell-based; conditions: Fungi
From the text: as §1

[14] = test system: Rhodotorula rubra CECT 1158; assay: minimum inhibitory concentration; type: cell-based; conditions: Yeast
From the text: as §1

[15] = test system: Chaetonium globosum ATCC 6205; assay: minimum inhibitory concentration; type: cell-based; conditions: Fungi
From the text: as §1

[16] = test system: Staphylococcus aureus ATCC 6538; assay: minimum inhibitory concentration; type: cell-based; conditions: Gram + Bacteria
From the text: as §1

[17] = test system: Saccharomyces cerevisiae ATCC 9763; assay: minimum inhibitory concentration; type: cell-based; conditions: Yeast
From the text: as §1

[18] = test system: Arthrobacter oxydans ATCC 8010; assay: minimum inhibitory concentration; type: cell-based; conditions: Gram + Bacteria
From the text: as §1

[19] = test system: Escherichia coli ATCC 8739; assay: minimum inhibitory concentration; type: cell-based; conditions: Gram − Bacteria
From the text: as §1

[20] = test system: Citrobacter freundii ATCC 22636; assay: minimum inhibitory concentration; type: cell-based; conditions: Gram − Bacteria
From the text: as §1

[21] = test system: Listeria monocytogenes ATCC 7644; assay: minimum inhibitory concentration; type: cell-based; conditions: Gram + Bacteria
From the text: as §1

[22] = test system: Mycobacterium phlei ATCC 41423; assay: minimum inhibitory concentration; type: cell-based; conditions: Gram + Bacteria
From the text: as §1

[23] = test system: Escherichia coli 0157H7; assay: minimum inhibitory concentration; type: cell-based; conditions: Gram − Bacteria
From the text: as §1

[24] = test system: Candida albicans ATCC 10231; assay: minimum inhibitory concentration; type: cell-based; conditions: Yeast
From the text: as §1

[25] = test system: Penicillium funiculosum CECT 2914; assay: minimum inhibitory concentration; type: cell-based; conditions: Fungi
From the text: as §1

[26] = test system: Proteus mirabilis CECT 170; assay: minimum inhibitory concentration; type: cell-based; conditions: Gram − Bacteria
From the text: as §1

[27] = test system: Aspergillus niger ATCC14604; assay: minimum inhibitory concentration; type: cell-based; conditions: Fungi
From the text: as §1

[28] = test system: Bordetella bronchiseptica ATCC 4617; assay: minimum inhibitory concentration; type: cell-based; conditions: Gram − Bacteria
From the text: as §1

[29] = test system: Enterobacter aerogenes CECT 689; assay: minimum inhibitory concentration; type: cell-based; conditions: Gram − Bacteria
From the text: as §1

[30] = test system: Vaccinia virus; type: cell-based; conditions: LAE 200 ppm
[31] = toxicological studies; type: in vivo; conditions: animals and humans
[32] = test system: Herpes virus type 1; assay: activity of LAE against Herpes virus type 1; type: cell-based, Herpes simplex virus; conditions: LAE 200 ppm
Description: (§2) In the following experiments the reduction factor has been calculated.
(§3) This reduction factor is calculated according to the following formula
(§4) R′ presents the reduction factor, v′ represents the volume of the sample of the test compound, a′ is the virus concentration in the added sample (^10log value), v″ is the volume of the final sample, a″ is the virus concentration after treatment (^10log value).
(§5) In the following experiments the clearance factor has been calculated. The clearance factor is calculated according to the following formula: […]
(§6) CL is the elimination factor (clearance factor), q′ is the initial concentration of virus (^10log value), q″ is the final concentration of virus (^10log value).
The virus which was investigated was the type Simplex virus of the subfamily Alphaherpesvirinae in the family Herpesviridae.
The conditions for the determination are similarly chosen according to the ones of example 1.
(§7) LAE was investigated at a concentration of 200 ppm.

[33] = test system: parainfluenza bovine type 3 strain SF-4 (ATCC VR-281); assay: activity of LAE against bovine parainfluenzae 3 virus (virus suspension, TCID50); type: cell-based; conditions: LAE 200 ppm
Description: as §2, §3, §4, §5, §6
Eagle minimum essential medium (EMEM) was obtained from Earle (ICN Flow, Rf. 11-100-24), was supplemented with
10% of fetal bovine serum (Biowhittaker, Ref. D14-810F), […] of glutamine (Biowhittaker, Ref. 17-605E), non-essential amino acids (Biowhittaker, Ref. 13-114E), 100 units of penicillin, 100 μg of streptomycin/ml and 1 mM of sodium pyruvate. LAE (CAS 60372-77-2) Lot No. 10234 with a LAE Content of 88.7%.
The investigated strain of the parainfluenza bovine type 3 was SF-4 (ATCC VR-281).
as §7
All experiments were performed at room temperature.
8 ml of deionized water was mixed with 1 ml of the virus suspension. 1 ml of LAE solution (containing 2000 ppm of LAE) was added, leading to a final LAE concentration of 200 ppm.
After 5 and 60 minutes samples for determination were taken. The design of the experiment allowed for conclusions of the effectivity of LAE after contact times of 5 and 60 minutes.
The number of virus particles in the experiment were determined by the quantitative assay TCID50 (infectious dose of cultured tissue).

[34] = metabolism in rats; type: in vivo; conditions: eventually excreted as carbon dioxide and urea
[35] = test system: Clostridium perfringens ATCC 77454; type: cell-based; conditions: Gram + Bacteria

CCCCCCCCCCCC(=O)N[C@@H](CCCN=C(N)N)C(=O)OCC.Cl [LAE, ethyl ester of the lauramide of the arginine monohydrochloride]
M.I.C. [1]: 32 ppm
M.I.C. [2]: 64 ppm
M.I.C. [3]: 16 ppm
M.I.C. [4]: 32 ppm
M.I.C. [5]: 64 ppm
M.I.C. [6]: 128 ppm
M.I.C. [7]: 32 ppm
M.I.C. [8]: 32 ppm
M.I.C. [9]: 32 ppm
M.I.C. [10]: 16 ppm
M.I.C. [11]: 16 ppm
M.I.C. [12]: 32 ppm
M.I.C. [13]: 128 ppm
M.I.C. [14]: 16 ppm
M.I.C. [15]: 16 ppm
M.I.C. [16]: 32 ppm
M.I.C. [17]: 32 ppm
M.I.C. [18]: 64 ppm
M.I.C. [19]: 32 ppm
M.I.C. [20]: 64 ppm
M.I.C. [21]: 10 ppm
M.I.C. [22]: 2 ppm
M.I.C. [23]: 20 ppm
M.I.C. [24]: 16 ppm
M.I.C. [25]: 16 ppm
M.I.C. [26]: 32 ppm
M.I.C. [27]: 32 ppm
M.I.C. [28]: 128 ppm
M.I.C. [29]: 32 ppm
Virus concentration 60 min after addition of LAE ([30]; 10log value, before addition 5.94 ± 0.34): 2.40
living virus after treatment for 5 minutes ([30]; 5 minutes): great reduction of the number of living microorganisms
Clearance factor ([30]; 60 min contact, 10log values): 3.54 ± 0.34
Reduction factor ([30]; 60 min contact, 10log values): 3.92 ± 0.36
living virus after treatment for 60 minutes ([30]; 60 minutes): substantial decrease of the number of living Vaccinia virus organisms
toxicity [31]: completely harmless to animals and humans
Virus concentration 60 min after addition of LAE ([32]; 10log value, before addition 7.94 ± 0.37): ≦1.70
Clearance factor ([32]; 60 min contact, 10log values): ≧6.24 ± 0.37
Reduction factor ([32]; 60 min contact, 10log values): ≧6.18 ± 0.36
remaining virus after treatment for 60 minutes ([32]; 60 minutes): no remaining virus organisms were detected
Clearance factor ([33]; 60 min contact, 10log values): ≧6.29 ± 0.32
Reduction factor ([33]; 60 min contact, 10log values): ≧6.46 ± 0.32
remaining virus after treatment for 60 minutes ([33]; 60 minutes): no remaining virus organisms were detected
Virus concentration 60 min after addition of LAE ([33]; room temperature, 10log value, TCID50, before addition 8.09 ± 0.33): ≦1.63
absorption and metabolism [34]: fast absorption and metabolisation into naturally-occurring amino acids and the fatty acid lauric acid
M.I.C. [35]: 16 ppm
